Data reported in patent US10285982B2, “3-(1H-pyrrolo[2,3-B]pyridin-2-yl)-1H-pyrazolo[3,4-C]pyridines and therapeutic uses thereof” (Samumed, LLC, priority 2015, dated 2019).

System: Wnt activity (Sp5-Luc reporter, SW480 colon carcinoma cells)
Test: Wnt activity screening assay, Sp5-Luc reporter gene in SW480 cells
Assay type: cell-based
Conditions: Homo sapiens; for inhibition at 10 µM: given where EC50 >10 μM, read-out: percent inhibition at 10 μM; for EC50: overnight incubation
Text: The screening assay for Wnt activity is described as follows. Reporter cell lines can be generated by stably transducing cancer cell lines (e.g., colon cancer) or primary cells (e.g., IEC-6 intestinal cells) with a lentiviral construct that includes a Wnt-responsive promoter driving expression of the firefly luciferase gene.
SW480 colon carcinoma cells were transduced with a lentiviral vector expressing luciferase with a human Sp5 promoter consisting of a sequence of eight TCF/LEF binding sites. SW480 cells stably expressing the Sp5-Luc reporter gene and a hygromycin resistance gene were selected by treatment with 150 μg/mL of hygromycin for 7 days. These stably transduced SW480 cells were expanded in cell culture and used for all further screening activities. Each compound was dissolved in DMSO as a 10 mM stock and used to prepare compound source plates. Serial dilution (1:3, 10-point dose-response curves starting from 10 μM) and compound transfer was performed using the ECHO 550 (Labcyte, Sunnyvale, Calif.) into 384-well white solid bottom assay plates (Greiner Bio-One) with appropriate DMSO backfill for a final DMSO concentration of 0.1%. For Sp5-Luc reporter gene assays, the cells were plated at 4,000 cells/well in 384-well plates with medium containing 1% fetal bovine serum and incubated overnight at 37° C. and 5% CO2. Following incubation, 20 μl of BrightGlo luminescence reagent (Promega) was added to each well of the 384-well assay plates. The plates were placed on an orbital shaker for 2 min and then luminescence was quantified using the Envision (Perkin Elmer) plate reader. Readings were normalized to DMSO only treated cells, and normalized activities were utilized for EC50 calculations using the dose-response log (inhibitor) vs. response-variable slope (four parameters) nonlinear regression feature available in GraphPad Prism 5.0 (or Dotmatics). For EC50 of >10 μM, the percent inhibition at 10 μM is provided.

| SMILES | EC50 [µM] | inhibition at 10 µM [%] |
| --- | --- | --- |
| c1cc(N2CCCCC2)c2cc(-c3n[nH]c4cnc(-c5cncc(CN6CCCC6)c5)cc34)[nH]c2n1 [Compound 182, 3-(4-(Piperidin-1-yl)-1H-pyrrolo[2,3-b]pyridin-2-yl)-5-(5-(pyrrolidin-1-ylmethyl)pyridin-3-yl)-1H-pyrazolo[3,4-c]pyridine] | > 10 | 41.4 |
| O=C(Cc1ccccc1)Nc1cncc(-c2cc3c(-c4cc5c(-c6ccccc6F)ccnc5[nH]4)n[nH]c3cn2)c1 [Compound 66, N-(5-(3-(4-(2-Fluorophenyl)-1H-pyrrolo[2,3-b]pyridin-2-yl)-1H-pyrazolo [3,4-c]pyridin-5-yl)pyridin-3-yl)-2-phenylacetamide] | 0.139 |  |
| CCC(=O)Nc1cncc(-c2cc3c(-c4cc5c(-c6cccc(F)c6)ccnc5[nH]4)n[nH]c3cn2)c1 [Compound 1, N-(5-(3-(4-(3-Fluorophenyl)-1H-pyrrolo[2,3-b]pyridin-2-yl)-1H-pyrazolo [3,4-c]pyridin-5-yl)pyridin-3-yl)propionamide] | > 10 | 24.3 |
| CC(C)C(=O)Nc1cncc(-c2cc3c(-c4cc5c(-c6ccc(F)cc6)ccnc5[nH]4)n[nH]c3cn2)c1 [Compound 37, N-(5-(3-(4-(4-Fluorophenyl)-1H-pyrrolo[2,3-b]pyridin-2-yl)-1H-pyrazolo [3,4-c]pyridin-5-yl)pyridin-3-yl)isobutyramide] | 0.671 |  |
| O=C(Nc1cncc(-c2cc3c(-c4cc5c(-c6ccccc6F)ccnc5[nH]4)n[nH]c3cn2)c1)C1CCCCC1 [Compound 79, N-(5-(3-(4-(2-Fluorophenyl)-1H-pyrrolo[2,3-b]pyridin-2-yl)-1H-pyrazolo [3,4-c]pyridin-5-yl)pyridin-3-yl)cyclohexanecarboxamide] | 0.359 |  |
| O=C(Nc1cncc(-c2cc3c(-c4cc5c(N6CCCCC6)ccnc5[nH]4)n[nH]c3cn2)c1)C1CC1 [Compound 188, N-(5-(3-(4-(Piperidin-1-yl)-1H-pyrrolo[2,3-b]pyridin-2-yl)-1H-pyrazolo[3,4-c]pyridin-5-yl)pyridin-3-yl)cyclopropanecarboxamide] | 1.23 |  |
| O=C(Nc1cncc(-c2cc3c(-c4cc5c(-c6ccc(F)cc6)ccnc5[nH]4)n[nH]c3cn2)c1)C1CCC1 [Compound 49, N-(5-(3-(4-(4-Fluorophenyl)-1H-pyrrolo[2,3-b]pyridin-2-yl)-1H-pyrazolo [3,4-c]pyridin-5-yl)pyridin-3-yl)cyclobutanecarboxamide] | 0.747 |  |
| CCCCC(=O)Nc1cncc(-c2cc3c(-c4cc5c(-c6ccccc6F)ccnc5[nH]4)n[nH]c3cn2)c1 [Compound 75, N-(5-(3-(4-(2-Fluorophenyl)-1H-pyrrolo[2,3-b]pyridin-2-yl)-1H-pyrazolo [3,4-c]pyridin-5-yl)pyridin-3-yl)pentanamide] | 0.542 |  |
| Fc1cccc(-c2ccnc3[nH]c(-c4n[nH]c5cnc(-c6cccnc6)cc45)cc23)c1 [Compound 4, 3-(4-(3-Fluorophenyl)-1H-pyrrolo[2,3-b]pyridin-2-yl)-5-(pyridin-3-yl)-1H-pyrazolo[3,4-c]pyridine] | 1.21 |  |
| O=C(Nc1cncc(-c2cc3c(-c4cc5c(-c6cccc(F)c6)ccnc5[nH]4)n[nH]c3cn2)c1)c1ccccc1 [Compound 11, N-(5-(3-(4-(3-Fluorophenyl)-1H-pyrrolo[2,3-b]pyridin-2-yl)-1H-pyrazolo [3,4-c]pyridin-5-yl)pyridin-3-yl)benzamide] | > 10 | 8.2 |
| CC(C)CC(=O)Nc1cncc(-c2cc3c(-c4cc5c(-c6ccc(F)cc6)ccnc5[nH]4)n[nH]c3cn2)c1 [Compound 30, N-(5-(3-(4-(4-Fluorophenyl)-1H-pyrrolo[2,3-b]pyridin-2-yl)-1H-pyrazolo [3,4-c]pyridin-5-yl)pyridin-3-yl)-3-methylbutanamide] | 0.444 |  |
| Oc1cncc(-c2cc3c(-c4cc5c(-c6ccc(F)cc6)ccnc5[nH]4)n[nH]c3cn2)c1 [Compound 533, 5-(3-(4-(4-Fluorophenyl)-1H-pyrrolo[2,3-b]pyridin-2-yl)-1H-pyrazolo[3,4-c]pyridin-5-yl)pyridin-3-ol] | 0.456 |  |

Second part, led by results:

| EC50 [µM] | SMILES | inhibition at 10 µM [%] |
| --- | --- | --- |
| > 10 | Fc1cccc(-c2ccnc3[nH]c(-c4n[nH]c5cnc(-c6cncc(OCc7ccccc7)c6)cc45)cc23)c1 [Compound 518, 5-(5-(Benzyloxy)pyridin-3-yl)-3-(4-(3-fluorophenyl)-1H-pyrrolo[2,3-b]pyridin-2-yl)-1H-pyrazolo[3,4-c]pyridine] | 3.3 |
| > 10 | O=C(Cc1ccccc1)Nc1cncc(-c2cc3c(-c4cc5cccnc5[nH]4)n[nH]c3cn2)c1 [Compound 262, N-(5-(3-(1H-Pyrrolo[2,3-b]pyridin-2-yl)-1H-pyrazolo[3,4-c]pyridin-5-yl)pyridin-3-yl)-2-phenylacetamide] | 9.1 |
| > 10 | O=C(Nc1cncc(-c2cc3c(-c4cc5c(-c6ccncc6)ccnc5[nH]4)n[nH]c3cn2)c1)C1CCCCC1 [Compound 135, N-(5-(3-(4-(Pyridin-4-yl)-1H-pyrrolo[2,3-b]pyridin-2-yl)-1H-pyrazolo[3,4-c]pyridin-5-yl)pyridin-3-yl)cyclohexanecarboxamide] | 13 |
| > 10 | CN(C)Cc1cncc(-c2cc3c(-c4cc5c(-c6ccccc6F)ccnc5[nH]4)n[nH]c3cn2)c1 [Compound 69, 1-(5-(3-(4-(2-Fluorophenyl)-1H-pyrrolo[2,3-b]pyridin-2-yl)-1H-pyrazolo [3,4-c]pyridin-5-yl)pyridin-3-yl)-N,N-dimethylmethanamine] | 11.3 |
| > 10 | Cc1ccncc1-c1cc2c(-c3cc4c(-c5ccncc5)ccnc4[nH]3)n[nH]c2cn1 [Compound 117, 5-(4-Methylpyridin-3-yl)-3-(4-(pyridin-4-yl)-1H-pyrrolo[2,3-b]pyridin-2-yl)-1H-pyrazolo[3,4-c]pyridine] | 42.4 |
| > 10 | O=C(Nc1cncc(-c2cc3c(-c4cc5c(-c6ccncc6)ccnc5[nH]4)n[nH]c3cn2)c1)C1CCC1 [Compound 133, N-(5-(3-(4-(Pyridin-4-yl)-1H-pyrrolo[2,3-b]pyridin-2-yl)-1H-pyrazolo[3,4-c]pyridin-5-yl)pyridin-3-yl)cyclobutanecarboxamide] | 1.8 |
| > 10 | Cn1cc(-c2cc3c(-c4cc5cccnc5[nH]4)n[nH]c3cn2)cn1 [Compound 652, 5-(1-Methyl-1H-pyrazol-4-yl)-3-(1H-pyrrolo[2,3-b]pyridin-2-yl)-1H-pyrazolo[3,4-c]pyridine] | 21.6 |
| > 10 | CN(C)CCNc1cc(F)cc(-c2ccnc3[nH]c(-c4n[nH]c5cnc(-c6ccncc6)cc45)cc23)c1 [Compound 466, N^1-(3-Fluoro-5-(2-(5-(pyridin-4-yl)-1H-pyrazolo[3,4-c]pyridin-3-yl)-1H-pyrrolo[2,3-b]pyridin-4-yl)phenyl)-N^2,N^2-dimethylethane-1,2-diamine] | 16.5 |
| > 10 | CC(C)CC(=O)Nc1cncc(-c2cc3c(-c4cc5c(-c6ccncc6)ccnc5[nH]4)n[nH]c3cn2)c1 [Compound 114, 3-Methyl-N-(5-(3-(4-(pyridin-4-yl)-1H-pyrrolo[2,3-b]pyridin-2-yl)-1H-pyrazolo[3,4-c]pyridin-5-yl)pyridin-3-yl)butanamide] | 9.6 |
| > 10 | O=C(Nc1cncc(-c2cc3c(-c4cc5cccnc5[nH]4)n[nH]c3cn2)c1)C1CCCCC1 [Compound 275, N-(5-(3-(1H-Pyrrolo[2,3-b]pyridin-2-yl)-1H-pyrazolo[3,4-c]pyridin-5-yl)pyridin-3-yl)cyclohexanecarboxamide] | 14 |
| > 10 | c1ccc(-c2cc3c(-c4cc5c(-c6ccncc6)ccnc5[nH]4)n[nH]c3cn2)nc1 [Compound 140, 5-(Pyridin-2-yl)-3-(4-(pyridin-4-yl)-1H-pyrrolo[2,3-b]pyridin-2-yl)-1H-pyrazolo[3,4-c]pyridine] | 24.3 |
| > 10 | Nc1cncc(-c2cc3c(-c4cc5c(-c6ccoc6)ccnc5[nH]4)n[nH]c3cn2)c1 [Compound 311, 5-(3-(4-(Furan-3-yl)-1H-pyrrolo[2,3-b]pyridin-2-yl)-1H-pyrazolo[3,4-c]pyridin-5-yl)pyridin-3-amine] | 23.2 |
| > 10 | c1cc(N2CCCCC2)c2cc(-c3n[nH]c4cnc(C5CCNCC5)cc34)[nH]c2n1 [Compound 601, 3-(4-(Piperidin-1-yl)-1H-pyrrolo[2,3-b]pyridin-2-yl)-5-(piperidin-4-yl)-1H-pyrazolo[3,4-c]pyridine] | 0 |
| > 10 | CC(C)(C)C(=O)Nc1cncc(-c2cc3c(-c4cc5c(-c6cccnc6)ccnc5[nH]4)n[nH]c3cn2)c1 [Compound 92, N-(5-(3-(4-(Pyridin-3-yl)-1H-pyrrolo[2,3-b]pyridin-2-yl)-1H-pyrazolo[3,4-c]pyridin-5-yl)pyridin-3-yl)pivalamide] | 3.4 |
